{"source": "patent US20210378193A1", "about": "“HAPLOID EMBRYOGENESIS” (STICHTING WAGENINGEN RESEARCH, priority 2013, published 2021)", "key": {"[1]": {"test_system": "B. napus microspore culture", "assay": "embryo yield in B. napus microspore culture", "type": "cell-based, Brassica napus", "method": "(§1) Brassica napus L. DH12075 was used as a donor plant for microspore embryo culture. The B. napus plant growth and microspore isolation procedures were performed as described in Custers, J. B. M. (2003) “Microspore culture in rapeseed (Brassica napus L.)” in Doubled haploid production in crop plants: a manual, M. Maluszynski, K. J. Kasha, B. P. Forster, and I. Szarejko, eds (Dordrecht: Kluwer Academic Publishers), pp. 185-193. Flower buds for microspore culture were grouped by size (measured from the tip of the flower bud to the bottom of the sepal), ranging from 3.0 to 3.5 mm for DH4079 and from 2.6 to 4.0 mm for DH12075. The microspores were isolated and cultured in NLN-13 medium (see Lichter, R. (1982) […]. For induction of embryogenesis, microspores were cultured in the dark at 33° C. for 20 hours and subsequently transferred to 25° C. Non-induced microspore cultures were cultured continuously at 25° C. or 18° C. Trichostatin A (TSA, Sigma-Aldrich) was prepared in DMSO. Freshly isolated microspores were inoculated in a medium containing TSA or the same volume of DMSO as a control and cultured for 20 hours at the temperature indicated for each experiment. After this period, the cultures were centrifuged at 200 g for 3 min, resuspended in fresh NLN-13 medium without TSA, and transferred to 25° C.\n(§2) The developmental fate of heat-stressed control cultures and cultures exposed to both heat-stress and TSA was followed by examining older cultures in more detail. […] Heat-stressed microspores and pollen were treated with a range of TSA concentrations, and the cultures examined after five and 15 days using DAPI staining to characterize the different multicellular structures that developed.\nMicrospores and immature pollen from different bud sizes were cultured in the presence of different concentrations of TSA compared with the equivalent volume of DMSO (control) at three temperatures: A-D=33° C., D-F=25° C., G-H=18° C. For each treatment, the samples are ranked from left to right along the z-axis according to the developmental stage of the microspores and pollen. […] The microspores and pollen were categorized as follows: mid-uninucleate microspore (white bars), late-uninucleate microspore (grey bars), and binucleate pollen (black bars) stages. […] The percentage of cells that divided gametopyhytically or sporophytically after five days of microspore culture at B=33° C., E=25° C., H=18° C. […] Dead microspores and pollen were not counted. […]"}, "[2]": {"test_system": "B. napus DH12075 microspore culture", "assay": "sporophytic cell division in B. napus DH12075 microspore culture (DAPI staining)", "type": "cell-based, Brassica napus", "method": "as §1\nThe developmental stage and identity of cells in microspore and anther culture were visualized with the nuclear stain 4′, 6-diamidino-2-phenylindole (DAPI, 1.25 μg/ml according to Custers (2003) supra using a Zeiss Axioskop epifluorescence microscope with a filter set no. 02. Approximately two hundred microspores or multicellular clusters were counted for each sample. GFP was imaged using confocal laser scanning microscopy (CLSM; Leica DM5500 Q). The GFP was excited with an argon laser line at 488 nm and detected with a 505-530 nm emission filter. Samples were counterstained with DAPI or propidium iodide (10 mg/ml; Sigma-Aldrich). Propidium iodide and red autofluorescence were excited at 532 nm and detected with a 620-660 nm emission filter. GFP and DAPI were covisualized with CLSM. For CLSM, DAPI was excited at 405 nm and detected with a 440-500 nm emission filter. The optical slices were median filtered with Leica LAS AF software. Arabidopsis anthers were cleared in HCG solution (water: Chloral hydrate: glycerol; 3:8:1) for 10 min, then observed under DIC microscopy with a Nikon OPTIPHOT microscope.\nCultured microspores and pollen of B. napus genotype DH12075 were treated with the HDAC inhibitor TSA. We examined the development of microspore cultures by staining heat-stressed (hereafter referred to as control) and heat-stressed plus TSA-treated immature male gametophytes at different developmental stages with the nuclear dye, DAPI. Initial dosage experiments were used to establish the minimal exposure time (20 h) in relation to the specific phenotypes discussed below.\nas §2"}, "[3]": {"test_system": "Arabidopsis immature male gametophytes", "assay": "Arabidopsis anther culture, sporophytic division of immature male gametophytes", "type": "cell-based", "conditions": "Col0 anthers, 25° C., 0.5 μM TSA, five days; never observed without TSA", "method": "Arabidopsis flower buds at stage 11 were collected for anther culture. Flower buds were surface sterilized in 2% bleach for 10 minutes, then rinsed three times in distilled water. The anthers (without filament) were placed in a liquid NLN-13 medium containing 0.5 μM TSA or the same volume of DMSO and then cut in half transversely in the medium to release the microspores. The cultures were placed at 25° C. for 20 hours in the dark. The medium was then replaced by fresh NLN-13 medium by pipetting gently, and the cultures incubated at 25° C. for an additional four days. Free and loosely attached microspores were collected and stained with DAPI. Arabidopsis hda T-DNA insertion lines were obtained from Nottingham Arabidopsis Stock Centre. At least 300 microspores per sample were counted.\nMulticellular structures that resemble the Type II and IV structures seen in Brassica microspore culture are produced when stage 11 Arabidopsis anthers are cultured at 25° C. with 0.5 μM TSA. […] TSA induces embryogenic cell divisions in Arabidopsis immature male gametophytes. Panels show: (A)=DAPI stained anther in TSA-treated culture showing multicellular, sporophytic structures derived from immature male gametophytes (arrow). […] (B)=cleared anther from a control culture showing lack of sporophytic cell proliferation. […]"}}}
{"smiles": "CC(/C=C/C(=O)NO)=C\\[C@@H](C)C(=O)c1ccc(N(C)C)cc1", "note": "[TSA, trichostatin A]", "values": [{"measurement": "embryo production", "setting": "[1]; culture at 25° C. (no heat stress), practically none in controls", "result": "Up to 0.2%"}, {"measurement": "development of histodifferentiated embryos", "setting": "[1]; cultured at 18° C.", "result": "did not develop"}, {"measurement": "embryo abundance relative to control cultures", "setting": "[1]; heat-stressed cultures, 0.05 μM TSA", "result": "up to five times more abundant than in control cultures"}, {"measurement": "heart to cotyledon stage embryos", "setting": "[1]; heat-stressed cultures, 0.5 μM TSA, 15 days, control up to 0.3%", "result": "up to 0.05%"}, {"measurement": "effect of duration of TSA treatment on proportion of sporophytic divisions", "setting": "[2]; 0.5 μM TSA, 33° C., treatment longer than 20 hours, counted after five days", "result": "did not further enhance or reduce"}, {"measurement": "proportion of the population dividing sporophytically", "setting": "[2]; heat stress plus 0.5 μM TSA, after two days of culture", "result": "up to 80%"}, {"measurement": "sporophytically-divided cells also containing one or more generative-like nuclei", "setting": "[2]; heat stress plus 0.5 μM TSA, two days of culture", "result": "approximately 10%"}, {"measurement": "Type IV (loose callus-like) structures", "setting": "[2]; heat-stress and TSA, five-day-old cultures, control 0.5%", "result": "up to 32%"}, {"measurement": "Type II (compact callus-like) structures", "setting": "[2]; heat-stress and TSA, five-day-old cultures, control 7%", "result": "up to 77%"}, {"measurement": "Type I classical embryogenic structures", "setting": "[2]; heat-stress, 0.5 μM TSA, five days, control 0.5%", "result": "up to 1%"}, {"measurement": "Type I classical embryogenic structures, abundance", "setting": "[2]; heat-stress, ten times lower concentration of TSA than 0.5 μM", "result": "much more abundant"}, {"measurement": "percentage of sporophytic divisions versus control at lower temperature", "setting": "[2]; microspore cultures at 18 or 25° C.", "result": "increased percentage of sporophytic divisions"}, {"measurement": "percentage of immature male gametophytes that divided sporophytically", "setting": "[3]", "result": "0-5%"}]}
